From ChEMBL document CHEMBL5055655, “Design, synthesis and bioactivity evaluation of fisetin derivatives as potential anti-inflammatory agents against LPS-induced acute lung injury” (Bioorg Med Chem, 2021)
Active and inactive are the calls of the source. No cut-off for these calls is given here.

Key:
[1] = tested on: J774.A1; experiment: Antiinflammatory activity in mouse J774.A1 cells assessed as inhibition of LPS-induced TNF-alpha secretion at 10 uM incubated for 2 followed by LPS stimulation and measured after 22 hrs by ELISA relative to control; type: functional; conditions: for Activity: time 24.0 hrs
[2] = tested on: J774.A1; experiment: Antiinflammatory activity in mouse J774.A1 cells assessed as inhibition of LPS-induced IL6 secretion at 10 uM incubated for 2 followed by LPS stimulation and measured after 22 hrs by ELISA relative to control; type: functional; conditions: for Activity: time 24.0 hrs
[3] = tested on: J774.A1; experiment: Cytotoxicity against mouse J774A.1 cells assessed as reduction in cell viability at 10 uM after 24 hrs by MTT assay; type: cell-based; conditions: j774.a1, 24 h
[4] = tested on: Mus musculus; experiment: Antiinflammatory activity against C57BL/6 mouse model of LPS-induced acute lung injury assessed as reduction in alveolar septa thickening at 20 mg/kg, IG treated 0.5 hrs before LPS challenge by H and E staining based histopathological analysis; type: functional, organism-based
[5] = tested on: Mus musculus; experiment: Antiinflammatory activity against C57BL/6 mouse model of LPS-induced acute lung injury assessed as reduction in inflammatory infiltration at 20 mg/kg, IG treated 0.5 hrs before LPS challenge by H and E staining based histopathological analysis; type: functional, organism-based
[6] = tested on: Mus musculus; experiment: Antiinflammatory activity against C57BL/6 mouse model of LPS-induced acute lung injury assessed as reduction in lung tissue destruction at 20 mg/kg, IG treated 0.5 hrs before LPS challenge by H and E staining based histopathological analysis; type: functional, organism-based
[7] = tested on: J774.A1; experiment: Antiinflammatory activity in mouse J774.A1 cells assessed as inhibition of LPS-induced TNF-alpha secretion incubated for 2 followed by LPS stimulation and measured after 22 hrs by ELISA; type: functional, cell-based
[8] = tested on: J774.A1; experiment: Antiinflammatory activity in mouse J774.A1 cells assessed as inhibition of LPS-induced IL6 secretion incubated for 2 followed by LPS stimulation and measured after 22 hrs by ELISA; type: functional, cell-based
[9] = tested on: Mus musculus; experiment: Antiinflammatory activity in C57BL/6 mouse model of LPS-induced acute lung injury assessed as reduction in lung wet/dry ratio at 20 mg/kg, IG administered 30 mins prior to LPS instillation; type: functional, organism-based
[10] = tested on: Mus musculus; experiment: Anti-inflammatory activity against C57BL/6 mouse model of LPS-induced acute lung injury assessed as reduction in cell count in broncho alveolar lavage fluid at 20 mg/kg, IG treated 0.5 hrs before LPS stimulation by ELISA; type: functional, organism-based
[11] = tested on: Mus musculus; experiment: Anti-inflammatory activity against C57BL/6 mouse model of LPS-induced acute lung injury assessed as reduction in TNF-alpha secretion in broncho alveolar lavage fluid at 20 mg/kg, IG treated 0.5 hrs before LPS stimulation by ELISA; type: functional, organism-based
[12] = tested on: Mus musculus; experiment: Anti-inflammatory activity against C57BL/6 mouse model of LPS-induced acute lung injury assessed as reduction in IL6 secretion in broncho alveolar lavage fluid at 20 mg/kg, IG treated 0.5 hrs before LPS stimulation by ELISA; type: functional, organism-based
[13] = tested on: Mus musculus; experiment: Antiinflammatory activity against C57BL/6 mouse model of LPS-induced acute lung injury assessed as reduction in interstitial edema in lung tissue at 20 mg/kg, IG treated 0.5 hrs before LPS challenge by H and E staining based histopathological analysis; type: functional, organism-based
[14] = tested on: Mus musculus; experiment: Antiinflammatory activity against C57BL/6 mouse model of LPS-induced acute lung injury assessed as reduction in pulmonary congestion at 20 mg/kg, IG treated 0.5 hrs before LPS challenge by H and E staining based histopathological analysis; type: functional, organism-based

| SMILES | Activity [1] | Activity [2] | Activity [3] | other results |
| --- | --- | --- | --- | --- |
| O=C(/C=C/c1ccc(O)c(O)c1)c1ccc([N+](=O)[O-])cc1O | Active | Active | Non-Toxic |  |
| CN(C)CCCOc1ccc(C(=O)/C=C/c2ccc(O)c(O)c2)c(O)c1 |  |  | Non-Toxic | Activity [4]: Active; Activity [5]: Active; Activity [6]: Active; inhibition at 10 µM ([1]; time 24 hrs): 76.4%; inhibition at 10 µM ([2]; time 24 hrs): 89.6%; IC50 ([7]; J774.A1, 22 h): 2.58 µM; inhibition ([7]; time 24.0 hrs): Dose-dependent effect; IC50 ([8]; J774.A1, 22 h): 8.25 µM; inhibition ([8]; time 24.0 hrs): Dose-dependent effect; Activity [9]: Active; Activity [10]: Active; Activity [11]: Active; Activity [12]: Active; Activity [13]: Active; Activity [14]: Active |
| O=c1c(O)c(-c2ccc(O)c(O)c2)oc2ccc(Br)cc12 | Active | Active | Non-Toxic |  |
| O=C(/C=C/c1ccc(O)c(O)c1)c1ccc(OCCCN2CCCC2)cc1O | Active | Active | Non-Toxic |  |
| O=C(/C=C/c1ccc(O)c(O)c1)c1cc(OCCN2CCCC2)ccc1O | Active | Active | Non-Toxic |  |
| COc1ccc2c(=O)c(O)c(-c3ccc(O)c(O)c3)oc2c1 | Active | Active | Non-Toxic |  |
| O=c1c(O)c(-c2ccc(O)c(O)c2)oc2cc(F)ccc12 | Active | Active | Non-Toxic |  |
| O=C(/C=C/c1ccc(O)c(O)c1)c1ccc(F)cc1O | Active | Active | Non-Toxic |  |
| O=C(/C=C/c1ccc(O)c(O)c1)c1ccc(OCCN2CCCC2)cc1O | Active | Active | Non-Toxic |  |
| O=C(/C=C/c1ccc(O)c(O)c1)c1cc(OCCCN2CCCC2)ccc1O | Active | Active | Non-Toxic |  |
| O=C(/C=C/c1ccc(O)c(O)c1)c1cc(OCCCN2CCOCC2)ccc1O | Active | Active | Non-Toxic |  |
| O=C(/C=C/c1ccc(O)c(O)c1)c1ccc(Br)cc1O | Active | Active | Non-Toxic |  |
| O=C(/C=C/c1ccc(O)c(O)c1)c1cc(F)ccc1O | Active | Active | Non-Toxic |  |
| CN1CCN(CCCOc2ccc(O)c(C(=O)/C=C/c3ccc(O)c(O)c3)c2)CC1 | Active | Active | Non-Toxic |  |
| O=C(/C=C/c1ccc(O)c(O)c1)c1ccc(OCCCN2CCOCC2)cc1O | Active | Active | Non-Toxic |  |
| COc1cc(O)c(C(=O)/C=C/c2ccc(O)c(O)c2)cc1OC | Active | Active | Non-Toxic |  |
| CN(C)CCCOc1ccc(O)c(C(=O)/C=C/c2ccc(O)c(O)c2)c1 | Active | Active | Non-Toxic |  |
| O=C(/C=C/c1ccc(O)c(O)c1)c1ccc(OCCN2CCOCC2)cc1O | Active | Active | Non-Toxic |  |
| O=c1c(O)c(-c2ccc(O)c(O)c2)oc2cc(Br)ccc12 | Active | Active | Non-Toxic |  |
| COc1ccc(C(=O)/C=C/c2ccc(O)c(O)c2)c(O)c1 [CALYTHROPSIN] | Active | Active | Non-Toxic |  |
| O=C(/C=C/c1ccc(O)c(O)c1)c1cc(OCCN2CCOCC2)ccc1O | Active | Active | Non-Toxic |  |
| O=C(/C=C/c1ccc(O)c(O)c1)c1cc(OCCCN2CCCCC2)ccc1O | Active | Active | Non-Toxic |  |
| O=c1c(O)c(-c2ccc(O)c(O)c2)oc2cc(O)ccc12 [FISETIN] | Active | Active | Non-Toxic | Activity [10]: Active |
| O=c1c(O)c(-c2ccc(O)c(O)c2)oc2ccc(F)cc12 | Active | Active | Non-Toxic |  |
| O=C(/C=C/c1ccc(O)c(O)c1)c1ccc(OCCCN2CCCCC2)cc1O | Active | Active | Non-Toxic |  |
| O=C(/C=C/c1ccc(O)c(O)c1)c1cc(Br)ccc1O | Active | Active | Non-Toxic |  |
